Reference: patent publication US8003785B2 (Takeda Pharmaceutical Company Limited, priority 2008, dated 2011)
pIC50: −log10 of the molar value.

These compounds were tested against T1, PLK1 (Homo sapiens, UniProt P53350) (assay: Biochemical Characterization Assay: HTRF kinase assay, GST-PLK1 phosphorylation of GST-p53). Conditions: GST-PLK1, GST-p53 substrate, ATP.
T1 construct: Full-length, active GST-PLK1 is purified from Sf9 insect cells; made in house; host or cells: Sf9 insect cells
Procedure, shortened: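 Full-length active GST-PLK1 (Sf9, 3 ug/mL) phosphorylated full-length GST-p53 (E. coli) in Kinase Assay Buffer for 35 min at 37 °C. Stopped with EDTA; phospho-p53 detected by HTRF with anti-phospho-p53, Eu-anti-rabbit and APC-anti-GST antibodies.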

T1 sequence (P53350 whole entry): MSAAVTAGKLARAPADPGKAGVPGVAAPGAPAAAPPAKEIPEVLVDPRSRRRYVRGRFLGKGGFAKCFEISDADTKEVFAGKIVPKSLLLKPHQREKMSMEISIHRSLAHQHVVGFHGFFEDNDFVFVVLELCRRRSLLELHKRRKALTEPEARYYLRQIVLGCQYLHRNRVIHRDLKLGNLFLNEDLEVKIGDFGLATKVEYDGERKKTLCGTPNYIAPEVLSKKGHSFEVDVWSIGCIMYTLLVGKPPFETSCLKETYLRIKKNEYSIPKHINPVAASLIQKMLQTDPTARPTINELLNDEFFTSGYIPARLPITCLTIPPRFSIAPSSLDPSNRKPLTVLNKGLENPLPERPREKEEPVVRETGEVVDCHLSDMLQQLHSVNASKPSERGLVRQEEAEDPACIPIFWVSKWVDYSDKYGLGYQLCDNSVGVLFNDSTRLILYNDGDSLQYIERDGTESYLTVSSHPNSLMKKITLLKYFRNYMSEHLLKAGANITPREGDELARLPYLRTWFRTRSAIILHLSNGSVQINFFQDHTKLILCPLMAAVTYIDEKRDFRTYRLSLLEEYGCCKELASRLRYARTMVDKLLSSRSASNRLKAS

pIC50	SMILES
7.30 to 9.00	COc1cc(C(=O)NCCCN(C)C)ccc1Nc1ncc2c(n1)N(C1CCCC1)CC(F)(F)C(=O)N2C [Example I-78, 4-(9-cyclopentyl-7,7-difluoro-5-methyl-6-oxo-6,7,8,9-tetrahydro-5H-pyrimido[4,5-b][1,4]diazepin-2-ylamino)-N-(3-dimethylamino-propyl)-3-methoxy-benzamide]
6.30 to 7.29	COc1cc(C(=O)N[C@@H]2CCN(C(=O)OC(C)(C)C)C2)ccc1Nc1ncc2c(n1)N(C1CCCC1)CC(F)(F)C(=O)N2C [Example I-81, R-3-[4-(9-cyclopentyl-7,7-difluoro-5-methyl-6-oxo-6,7,8,9-tetrahydro-5H-pyrimido[4,5-b][1,4]diazepin-2-ylamino)-3-methoxy-benzoylamino]-pyrrolidine-1-carboxylic acid tert-butyl ester]
7.30 to 9.00	COc1cc(C(=O)N[C@H]2CCN(C(=O)OC(C)(C)C)C2)ccc1Nc1ncc2c(n1)N(C1CCCC1)CC(F)(F)C(=O)N2C [Example I-82, S-3-[4-(9-cyclopentyl-7,7-difluoro-5-methyl-6-oxo-6,7,8,9-tetrahydro-5H-pyrimido[4,5-b][1,4]diazepin-2-ylamino)-3-methoxy-benzoylamino]-pyrrolidine-1-carboxylic acid tert-butyl ester]
7.30 to 9.00	COc1cc(C(=O)N[C@H]2CCNC2)ccc1Nc1ncc2c(n1)N(C1CCCC1)CC(F)(F)C(=O)N2C [Example I-83, S-4-(9-cyclopentyl-7,7-difluoro-5-methyl-6-oxo-6,7,8,9-tetrahydro-5H-pyrimido[4,5-b][1,4]diazepin-2-ylamino)-3-methoxy-N—(S)-pyrrolidin-3-yl-benzamide]
7.30 to 9.00	COc1cc(C(=O)NC2CCN(C(=O)C(C)(C)N)CC2)ccc1Nc1ncc2c(n1)N(C1CCCC1)CC(F)(F)C(=O)N2C [Example I-88, N-[1-(2-amino-2-methyl-propionyl)-piperidin-4-yl]-4-(9-cyclopentyl-7,7-difluoro-5-methyl-6-oxo-6,7,8,9-tetrahydro-5H-pyrimido[4,5-b][1,4]diazepin-2-ylamino)-3-methoxy-benzamide]
7.30 to 9.00	COc1cc(C(=O)NCC2CN(C(=O)OC(C)(C)C)C2)ccc1Nc1ncc2c(n1)N(C1CCCC1)CC(F)(F)C(=O)N2C [Example I-91, 3-{[4-(9-cyclopentyl-7,7-difluoro-5-methyl-6-oxo-6,7,8,9-tetrahydro-5H-pyrimido[4,5-b][1,4]diazepin-2-ylamino)-3-methoxy-benzoylamino]-methyl}-azetidine-1-carboxylic acid tert-butyl ester]
6.30 to 7.29	COc1cc(C(=O)NCC2CCN(C(=O)OC(C)(C)C)C2)ccc1Nc1ncc2c(n1)N(C1CCCC1)CC(F)(F)C(=O)N2C (stereo not drawn) [Example I-92, 3-{[4-(9-cyclopentyl-7,7-difluoro-5-methyl-6-oxo-6,7,8,9-tetrahydro-5H-pyrimido[4,5-b][1,4]diazepin-2-ylamino)-3-methoxy-benzoylamino]-methyl}-pyrrolidine-1-carboxylic acid tert-butyl ester]
7.30 to 9.00	COc1cc(C(=O)NCC2CCNC2)ccc1Nc1ncc2c(n1)N(C1CCCC1)CC(F)(F)C(=O)N2C (stereo not drawn) [Example I-93, 4-(9-cyclopentyl-7,7-difluoro-5-methyl-6-oxo-6,7,8,9-tetrahydro-5H-pyrimido[4,5b][1,4]diazepin-2-ylamino)-3-methoxy-N-pyrrolidin-3-ylmethyl-benzamide]
7.30 to 9.00	COc1cc(C(=O)NCCCN2CCN(C(=O)OC(C)(C)C)CC2)ccc1Nc1ncc2c(n1)N(C1CCCC1)CC(F)(F)C(=O)N2C [Example I-94, 4-{3-[4-(9-cyclopentyl-7,7-difluoro-5-methyl-6-oxo-6,7,8,9-tetrahydro-5H-pyrimido[4,5-b][1,4]diazepin-2-ylamino)-3-methoxy-benzoylamino]-propyl}-piperazine-1-carboxylic acid tert-butyl ester]
6.30 to 7.29	COc1cc(C(=O)N[C@H]2CC[C@@H](NC(=O)OC(C)(C)C)CC2)ccc1Nc1ncc2c(n1)N(C1CCCC1)CC(F)(F)C(=O)N2C [Example I-97, cis-{4-[4-(9-cyclopentyl-7,7-difluoro-5-methyl-6-oxo-6,7,8,9-tetrahydro-5H-pyrimido[4,5-b][1,4]diazepin-2-ylamino)-3-methoxy-benzoylamino]-cyclohexyl}-carbamic acid tert-butyl ester]
7.30 to 9.00	COc1cc(C(=O)N[C@H]2CC[C@@H](N)CC2)ccc1Nc1ncc2c(n1)N(C1CCCC1)CC(F)(F)C(=O)N2C [Example I-98, cis-N-(4-amino-cyclohexyl)-4-(9-cyclopentyl-7,7-difluoro-5-methyl-6-oxo-6,7,8,9-tetrahydro-5H-pyrimido[4,5-b][1,4]diazepin-2-ylamino)-3-methoxy-benzamide]
7.30 to 9.00	COc1cc(C(=O)NC2CN(C)C2)ccc1Nc1ncc2c(n1)N(C1CCCC1)CC(F)(F)C(=O)N2C [Example I-99, 4-(9-cyclopentyl-7,7-difluoro-5-methyl-6-oxo-6,7,8,9-tetrahydro-5H-pyrimido[4,5-b][1,4]diazepin-2-ylamino)-3-methoxy-N-(1-methyl-azetidin-3-yl)-benzamide]

Further lines, the compound ahead of its results:

SMILES	pIC50
COc1cc(C(=O)NC2CCN(CCF)CC2)ccc1Nc1ncc2c(n1)N(C1CCCC1)CC(F)(F)C(=O)N2C [Example I-75, 4-(9-cyclopentyl-7,7-difluoro-5-methyl-6-oxo-6,7,8,9-tetrahydro-5H-pyrimido[4,5-b][1,4]diazepin-2-ylamino)-N-[1-(2-fluoro-ethyl)-piperidin-4-yl]-3-methoxy-benzamide]	7.30 to 9.00
COc1cc(C(=O)NC2CCN(CCCS(C)(=O)=O)CC2)ccc1Nc1ncc2c(n1)N(C1CCCC1)CC(F)(F)C(=O)N2C [Example I-76, 4-(9-cyclopentyl-7,7-difluoro-5-methyl-6-oxo-6,7,8,9-tetrahydro-5H-pyrimido[4,5-b][1,4]diazepin-2-ylamino)-N-[1-(3-methanesulfonyl-propyl)-piperidin-4-yl]-3-methoxy-benzamide]	7.30 to 9.00
COc1cc(C(=O)NC2CCN(CC(F)(F)F)CC2)ccc1Nc1ncc2c(n1)N(C1CCCC1)CC(F)(F)C(=O)N2C [Example I-77, 4-(9-cyclopentyl-7,7-difluoro-5-methyl-6-oxo-6,7,8,9-tetrahydro-5H-pyrimido[4,5-b][1,4]diazepin-2-ylamino)-3-methoxy-N-[1-(2,2,2-trifluoro-ethyl)-piperidin-4-yl]-benzamide]	7.30 to 9.00
COc1cc(C(=O)NCCCN2CCOCC2)ccc1Nc1ncc2c(n1)N(C1CCCC1)CC(F)(F)C(=O)N2C [Example I-79, 4-(9-cyclopentyl-7,7-difluoro-5-methyl-6-oxo-6,7,8,9-tetrahydro-5H-pyrimido[4,5-b][1,4]diazepin-2-ylamino)-3-methoxy-N-(3-morpholin-4-yl-propyl)-benzamide]	7.30 to 9.00
COc1cc(C(=O)NCCCN2CCCC2)ccc1Nc1ncc2c(n1)N(C1CCCC1)CC(F)(F)C(=O)N2C [Example I-80, 4-(9-cyclopentyl-7,7-difluoro-5-methyl-6-oxo-6,7,8,9-tetrahydro-5H-pyrimido[4,5-b][1,4]diazepin-2-ylamino)-3-methoxy-N-(3-pyrrolidin-1-yl-propyl)-benzamide]	7.30 to 9.00
COc1cc(C(=O)NCCCN2CCCCC2)ccc1Nc1ncc2c(n1)N(C1CCCC1)CC(F)(F)C(=O)N2C [Example I-84, 4-(9-cyclopentyl-7,7-difluoro-5-methyl-6-oxo-6,7,8,9-tetrahydro-5H-pyrimido[4,5-b][1,4]diazepin-2-ylamino)-3-methoxy-N-(3-piperidin-1-yl-propyl)-benzamide]	7.30 to 9.00
COc1cc(C(=O)NC2CC(C)(C)N(C)C(C)(C)C2)ccc1Nc1ncc2c(n1)N(C1CCCC1)CC(F)(F)C(=O)N2C [Example I-85, 4-(9-cyclopentyl-7,7-difluoro-5-methyl-6-oxo-6,7,8,9-tetrahydro-5H-pyrimido[4,5-b][1,4]diazepin-2-ylamino)-3-methoxy-N-(1,2,2,6,6-pentamethyl-piperidin-4-yl)-benzamide]	7.30 to 9.00
COc1cc(C(=O)NCCCN2CCN(C)CC2)ccc1Nc1ncc2c(n1)N(C1CCCC1)CC(F)(F)C(=O)N2C [Example I-87, 4-(9-cyclopentyl-7,7-difluoro-5-methyl-6-oxo-6,7,8,9-tetrahydro-5H-pyrimido[4,5-b][1,4]diazepin-2-ylamino)-3-methoxy-N-[3-(4-methyl-piperazin-1-yl)-propyl]-benzamide]	7.30 to 9.00
COc1cc(C(=O)N[C@@H]2CCNC(=O)C2)ccc1Nc1ncc2c(n1)N(C1CCCC1)CC(F)(F)C(=O)N2C [Example I-89, R-4-(9-cyclopentyl-7,7-difluoro-5-methyl-6-oxo-6,7,8,9-tetrahydro-5H-pyrimido[4,5-b][1,4]diazepin-2-ylamino)-3-methoxy-N-(2-oxo-piperidin-4-yl)-benzamide]	7.30 to 9.00
COc1cc(C(=O)N[C@H]2CCNC(=O)C2)ccc1Nc1ncc2c(n1)N(C1CCCC1)CC(F)(F)C(=O)N2C [Example I-90, S-4-(9-cyclopentyl-7,7-difluoro-5-methyl-6-oxo-6,7,8,9-tetrahydro-5H-pyrimido[4,5-b][1,4]diazepin-2-ylamino)-3-methoxy-N-(2-oxo-piperidin-4-yl)-benzamide]	7.30 to 9.00
COc1cc(C(=O)NCCCN2CCNCC2)ccc1Nc1ncc2c(n1)N(C1CCCC1)CC(F)(F)C(=O)N2C [Example I-95, 4-(9-cyclopentyl-7,7-difluoro-5-methyl-6-oxo-6,7,8,9-tetrahydro-5H-pyrimido[4,5-b][1,4]diazepin-2-ylamino)-3-methoxy-N-(3-piperazin-1-yl-propyl)-benzamide]	7.30 to 9.00
COc1cc(C(=O)NCCCN2CCN(CCO)CC2)ccc1Nc1ncc2c(n1)N(C1CCCC1)CC(F)(F)C(=O)N2C [Example I-96, 4-(9-cyclopentyl-7,7-difluoro-5-methyl-6-oxo-6,7,8,9-tetrahydro-5H-pyrimido[4,5-b][1,4]diazepin-2-ylamino)-N-{3-[4-(2-hydroxy-ethyl)-piperazin-1-yl]-propyl}-3-methoxy-benzamide]	7.30 to 9.00
